Measured values as given in patent US20230015823A1, “METHODS OF ADMINISTERING VOXELOTOR” (Global Blood Therapeutics, Inc., priority 2019, published 2023).
Entries after “also recorded” stand apart in the source; their conditions may differ.

Experiments:
rat [1] = assay: Rat micronucleus assay; assay type: in vivo
Source text: (§1) Voxelotor was not genotoxic in the reverse mutation bacterial (Ames) test, rat Comet assay, or rat micronucleus assay.

[2] = Excretion after administration of radiolabeled voxelotor; assay type: in vivo
Source text: Following the administration of radiolabeled voxelotor, approximately 62.6% of the dose and its metabolites are excreted into feces (33.3% unchanged) and 35.5% in urine (0.08% unchanged).

pregnant rabbits = assay: Embryo-fetal development study in pregnant rabbits; assay type: in vivo, rabbit
Procedure: In embryo-fetal development studies, voxelotor was administered orally to pregnant rats at 15, 50, and 250 mg/kg/day (gestation days 7 through 17) and rabbits at 25, 75, and 150 mg/kg/day (gestation days 7 through 19) through organogenesis.

OATP1B3 = OATP1B3 (Homo sapiens, UniProt Q9NPD5); assay: In vitro transporter studies: OATP1B3; assay type: in vitro ADME
Chain of OATP1B3 (Q9NPD5 whole entry): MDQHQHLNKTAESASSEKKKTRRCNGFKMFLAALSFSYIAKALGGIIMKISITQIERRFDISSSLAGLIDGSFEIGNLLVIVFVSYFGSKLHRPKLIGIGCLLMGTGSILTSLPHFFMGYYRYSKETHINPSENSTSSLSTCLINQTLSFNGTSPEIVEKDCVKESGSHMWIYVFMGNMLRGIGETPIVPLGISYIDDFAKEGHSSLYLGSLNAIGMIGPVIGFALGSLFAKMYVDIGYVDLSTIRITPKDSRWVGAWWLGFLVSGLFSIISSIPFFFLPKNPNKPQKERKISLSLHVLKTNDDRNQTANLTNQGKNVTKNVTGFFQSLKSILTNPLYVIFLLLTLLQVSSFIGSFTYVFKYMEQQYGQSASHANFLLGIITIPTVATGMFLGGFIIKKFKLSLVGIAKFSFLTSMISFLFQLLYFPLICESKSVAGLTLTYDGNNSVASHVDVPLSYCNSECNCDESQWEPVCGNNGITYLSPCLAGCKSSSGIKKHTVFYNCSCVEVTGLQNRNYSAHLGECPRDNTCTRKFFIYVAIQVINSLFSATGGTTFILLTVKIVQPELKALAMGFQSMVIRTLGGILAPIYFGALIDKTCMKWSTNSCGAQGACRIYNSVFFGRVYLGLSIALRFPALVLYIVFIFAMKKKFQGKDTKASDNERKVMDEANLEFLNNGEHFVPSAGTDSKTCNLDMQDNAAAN

hemoglobin S (HbS) = hemoglobin S (HbS) (Homo sapiens, UniProt P69905); assay: Mechanism of action: binding to HbS and HbS polymerization
Chain of hemoglobin S (HbS) (P69905 whole entry): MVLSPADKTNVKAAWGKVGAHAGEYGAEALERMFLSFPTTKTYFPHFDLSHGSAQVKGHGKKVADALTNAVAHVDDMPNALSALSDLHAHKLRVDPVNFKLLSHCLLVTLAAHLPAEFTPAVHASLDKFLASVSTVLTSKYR
Chain of hemoglobin S (HbS) (P68871 with tags, fused parts or gaps E7V partner limits assumed): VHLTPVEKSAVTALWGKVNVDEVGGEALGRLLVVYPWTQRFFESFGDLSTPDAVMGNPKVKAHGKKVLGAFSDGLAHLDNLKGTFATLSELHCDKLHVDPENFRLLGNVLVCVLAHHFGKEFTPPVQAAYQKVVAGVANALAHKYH

[3] = Effect of acid reducing agent omeprazole on voxelotor; details: in vivo
CYP2C19 = biological target: T1, CYP2C19 (Homo sapiens, UniProt P33261); assay: Effect of voxelotor on PK of CYP2C19 probe substrate omeprazole in healthy subjects; assay type: in vivo
T1 construct: endogenous in cells; host or cells: healthy subjects, in vivo
T1 sequence (P33261 whole entry): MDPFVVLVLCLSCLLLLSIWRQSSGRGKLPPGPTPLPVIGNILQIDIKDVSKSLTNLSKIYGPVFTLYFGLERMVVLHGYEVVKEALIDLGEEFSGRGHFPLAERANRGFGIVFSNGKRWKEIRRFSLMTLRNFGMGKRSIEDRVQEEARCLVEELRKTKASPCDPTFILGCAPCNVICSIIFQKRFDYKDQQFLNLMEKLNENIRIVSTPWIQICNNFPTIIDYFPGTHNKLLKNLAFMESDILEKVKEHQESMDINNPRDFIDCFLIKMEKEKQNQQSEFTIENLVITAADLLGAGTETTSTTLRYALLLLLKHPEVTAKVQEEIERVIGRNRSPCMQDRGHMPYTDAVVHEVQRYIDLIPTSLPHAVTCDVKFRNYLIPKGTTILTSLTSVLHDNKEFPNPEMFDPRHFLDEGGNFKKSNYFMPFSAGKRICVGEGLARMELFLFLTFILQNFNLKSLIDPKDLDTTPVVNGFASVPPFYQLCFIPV
Procedure: (§2) During Period 1, subjects received a single dose of caffeine 100 mg, warfarin sodium 10 mg+vitamin K 10 mg, omeprazole 20 mg, and midazolam hydrochloride 2 mg on Day 1. During Period 2, subjects received voxelotor 900 mg QD on Days 1 and 2 followed by 600 mg QD on Day 3, a single dose of caffeine 100 mg, warfarin sodium 10 mg+vitamin K 10 mg, omeprazole 20 mg, and midazolam hydrochloride 2 mg on Day 4, and voxelotor 600 mg QD on Days 4 through 7.
(§3) Whole blood and plasma concentrations of voxelotor and plasma concentrations of caffeine, paraxanthine, S-warfarin, omeprazole, 5-hydroxyomeprazole, midazolam, and 1-hydroxymidazolam were determined using validated assays.

rat [4] = assay: Rat Comet assay; assay type: in vivo
Source text: as §1

CYP1A2 = CYP1A2 (Homo sapiens, UniProt P05177); assay: Effect of voxelotor on PK of CYP1A2 probe substrate caffeine in healthy subjects; assay type: in vivo
Chain of CYP1A2 (P05177 whole entry): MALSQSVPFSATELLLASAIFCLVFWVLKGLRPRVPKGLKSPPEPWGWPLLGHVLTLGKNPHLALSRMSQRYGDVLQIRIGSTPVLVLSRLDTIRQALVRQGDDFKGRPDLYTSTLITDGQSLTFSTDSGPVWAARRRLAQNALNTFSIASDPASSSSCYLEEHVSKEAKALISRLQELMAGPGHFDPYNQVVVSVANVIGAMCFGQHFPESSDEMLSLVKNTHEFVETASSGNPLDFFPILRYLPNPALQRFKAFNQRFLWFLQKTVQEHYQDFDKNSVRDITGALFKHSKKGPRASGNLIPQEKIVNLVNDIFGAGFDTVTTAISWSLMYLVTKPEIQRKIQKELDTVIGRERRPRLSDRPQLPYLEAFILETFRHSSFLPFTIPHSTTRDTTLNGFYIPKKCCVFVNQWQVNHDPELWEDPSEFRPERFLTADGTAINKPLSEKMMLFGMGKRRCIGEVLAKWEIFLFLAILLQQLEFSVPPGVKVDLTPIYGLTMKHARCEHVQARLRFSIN
Procedure: as §2, §3

rats = assay: Fertility and early embryonic development study; assay type: in vivo, rat
Procedure: In a fertility and early embryonic development study, voxelotor was administered orally to rats at 15, 50, and 250 mg/kg/day. Males were dosed 28 days prior to mating through cohabitation and females were dosed 14 days prior to mating through gestation Day 7.

[5] = Probe substrate study in healthy subjects: voxelotor exposure and safety; assay type: in vivo, human; details: alone and in combination with caffeine, warfarin sodium, omeprazole and midazolam hydrochloride
Procedure: as §2, §3

[6] = Phase 1 hepatic impairment study: safety evaluation (TEAEs); assay type: in vivo
Source text: This was a Phase 1, multiple-center, nonrandomized, open-label, parallel group study of a single oral dose of voxelotor administered in subjects with mild (Child-Pugh A; score 5 to 6 points), moderate (Child-Pugh B; score 7 to 9 points), or severe (Child-Pugh C; score 10 to 15 points) hepatic impairment and subjects with normal hepatic function. This study was designed to assess the effects of mild, moderate, or severe hepatic impairment on the PK of a single oral dose of voxelotor. Routine safety assessments (AE monitoring, vital signs, physical examinations, clinical laboratory tests, and ECGs) were performed.
Eligible subjects received a single oral dose of voxelotor 1500 mg (5×300-mg capsules) on Day 1 (for normal hepatic function, mild and moderate hepatic impairment). A lower dose of voxelotor 600 mg (2×300-mg capsules) was administered for the subjects with severe hepatic impairment.
Adverse events and concomitant medication use were monitored throughout the study. Safety assessments, including physical examinations, vital signs assessments, 12-lead ECGs, and clinical laboratory tests, were performed. Whole blood and plasma concentrations of voxelotor were determined using validated assays.
All statistical analyses were performed using the safety population. All AEs were coded to SOC and PT using MedDRA (Version 19.0) and presented by subject in data listings. A treatment-emergent AE was defined as an AE that was not present prior to treatment with study drug, but appeared following treatment or was present at treatment initiation but worsened during treatment. An AE that was present at treatment initiation but resolved and then reappeared while the subject was on treatment was a TEAE (regardless of the intensity of the AE when the treatment was initiated). Programmatically, an AE was classified as a TEAE if the start date and time occurred on or after the start date and time of first study drug dosing. The overall incidence of TEAEs (number and percentage of subjects) as well as the number of events were summarized by hepatic function group, severity, SAEs, causally related TEAE and SAEs, TEAEs leading to study or treatment discontinuation, life-threatening SAEs, and SAEs resulting in death.
The TEAEs were summarized and tabulated at both the subject (number [%] of subjects) and event (number of events) level: (1) by hepatic function group, SOC, and PT; (2) by hepatic function group, SOC, PT, and maximum reported severity; and (3) by hepatic function group, SOC, PT, and maximum relationship to study drug.

[7] = Effect of food on voxelotor PK; assay type: in vivo
BCRP = BCRP (Homo sapiens, UniProt Q9UNQ0); assay: In vitro transporter studies: BCRP; assay type: in vitro ADME
Chain of BCRP (Q9UNQ0 whole entry): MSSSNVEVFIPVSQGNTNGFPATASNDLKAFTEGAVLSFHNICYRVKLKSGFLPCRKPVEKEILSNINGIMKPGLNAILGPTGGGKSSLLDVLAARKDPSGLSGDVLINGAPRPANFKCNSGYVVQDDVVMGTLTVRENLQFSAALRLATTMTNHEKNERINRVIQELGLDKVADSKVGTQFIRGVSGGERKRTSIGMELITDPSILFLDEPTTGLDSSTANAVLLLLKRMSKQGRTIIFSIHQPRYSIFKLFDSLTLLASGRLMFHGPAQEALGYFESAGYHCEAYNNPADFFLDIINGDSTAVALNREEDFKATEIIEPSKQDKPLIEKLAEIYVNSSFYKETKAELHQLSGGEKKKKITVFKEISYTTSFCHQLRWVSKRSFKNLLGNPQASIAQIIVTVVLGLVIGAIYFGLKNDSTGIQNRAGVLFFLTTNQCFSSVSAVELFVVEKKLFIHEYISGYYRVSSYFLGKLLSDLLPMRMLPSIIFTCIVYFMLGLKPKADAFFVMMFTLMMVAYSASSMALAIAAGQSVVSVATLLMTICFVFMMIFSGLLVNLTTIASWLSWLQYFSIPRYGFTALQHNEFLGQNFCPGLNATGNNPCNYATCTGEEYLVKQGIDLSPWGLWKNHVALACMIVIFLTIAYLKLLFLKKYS

CYP2B6 = CYP2B6 (Homo sapiens, UniProt P20813); assay: In vitro studies: CYP2B6; assay type: in vitro ADME
Chain of CYP2B6 (P20813 whole entry): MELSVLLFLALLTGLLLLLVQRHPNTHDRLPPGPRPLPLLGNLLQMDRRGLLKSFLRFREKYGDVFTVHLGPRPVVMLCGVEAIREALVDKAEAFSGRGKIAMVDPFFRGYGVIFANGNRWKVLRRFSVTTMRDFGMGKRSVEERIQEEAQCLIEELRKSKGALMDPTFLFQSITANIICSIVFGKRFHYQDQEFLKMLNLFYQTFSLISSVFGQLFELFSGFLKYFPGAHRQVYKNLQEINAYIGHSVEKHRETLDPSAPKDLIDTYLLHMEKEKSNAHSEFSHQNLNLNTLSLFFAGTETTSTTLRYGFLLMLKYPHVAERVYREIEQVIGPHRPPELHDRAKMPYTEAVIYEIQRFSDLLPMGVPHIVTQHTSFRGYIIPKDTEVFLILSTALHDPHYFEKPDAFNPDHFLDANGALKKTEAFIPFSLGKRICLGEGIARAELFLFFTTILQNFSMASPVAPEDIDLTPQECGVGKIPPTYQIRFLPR

[8] = healthy subjects, multiple doses of voxelotor 900/600 mg QD

CC(C)n1nccc1-c1ncccc1COc1cccc(O)c1C=O [voxelotor, 2-hydroxy-6-((2-(1-isopropyl-1H-pyrazol-5-yl)pyridin-3-yl)methoxy)benzaldehyde]
genotoxicity (rat [1]): not genotoxic | dose and its metabolites excreted in urine [2]: 35.5% | dose and its metabolites excreted into feces [2]: approximately 62.6% | dose excreted unchanged in urine [2]: 0.08% | dose excreted unchanged into feces [2]: 33.3% | adverse developmental outcomes (pregnant rabbits; pregnant rabbits, oral 25, 75, 150 mg/kg/day, gestation days 7 through 19): no adverse developmental effects; also recorded: no evidence of adverse developmental outcomes | exposure at highest dose level (maternal toxicity observed) relative to exposure in patients at the recommended daily dose (pregnant rabbits; rabbits, 150 mg/kg/day): 0.3 times | inhibition of OATP1B3 (OATP1B3): not an inhibitor | substrate of OATP1B3 (OATP1B3): not a substrate | inhibition of HbS polymerization (hemoglobin S (HbS)): dose-dependent inhibition of HbS polymerization | effect of co-administered omeprazole (proton pump inhibitor) on voxelotor exposure [3]: did not alter voxelotor exposure | effect of voxelotor on PK of CYP2C19 probe substrate (omeprazole) (CYP2C19; [8]): no clinically meaningful effect | inhibition of CYP2C19 in vivo (CYP2C19; human, in vivo): not | genotoxicity (rat [4]): not genotoxic | effect of voxelotor on PK of CYP1A2 probe substrate (caffeine) (CYP1A2; [8]): no clinically meaningful effect | inhibition of CYP1A2 in vivo (CYP1A2; human, in vivo): not | exposure at 250 mg/kg/day relative to human exposure at 1,500 mg/day (rats): approximately 5 times | sperm motility (rats; 250 mg/kg/day, changes in sperm morphology also occurred): decreased | effect on fertility or reproductive function (rats; oral 15, 50, 250 mg/kg/day): no effect on fertility or reproductive function | safety and tolerability [5]: safe and well tolerated | deaths, SAEs, AEs leading to discontinuation ([6]; all hepatic function groups): No deaths, other serious adverse events (SAEs), and no AEs leading to discontinuation of the study were reported | subjects reporting mild TEAEs ([6]; mild hepatic impairment, 4 of 7 subjects): 57.1% | subjects reporting a moderate TEAE ([6]; moderate hepatic impairment, 1 of 7 subjects): 14.3% | subjects with TEAE of diarrhea (mild) ([6]; moderate hepatic impairment, 1500 mg, 5 of 7 subjects): 71.4% | subjects reporting mild TEAEs ([6]; moderate hepatic impairment, 5 of 7 subjects): 71.4% | TEAEs ([6]; normal hepatic function, 1500 mg): No TEAEs were reported | subjects with diarrhea (most frequently reported TEAE) ([6]; overall, 7 events in 7 subjects): 25% | subjects reporting TEAEs ([6]; overall, 11 subjects, 17 TEAEs): 39.3% | subjects with TEAEs possibly/probably related to study drug ([6]; overall, seven subjects, 8 TEAEs): 25.0% | subjects reporting a mild TEAE and a moderate TEAE ([6]; severe hepatic impairment, 600 mg, 1 of 7 subjects): 14.3% | safety and tolerability ([6]; single oral dose 1500 mg (mild, moderate, normal) or 600 mg (severe hepatic impairment)): safe and well tolerated | increase of AUC with high-fat, high-calorie meal relative to fasted state ([7]; plasma): 42% | increase of Cmax with high-fat, high-calorie meal relative to fasted state ([7]; plasma): 95% | increase of AUC with high-fat, high-calorie meal relative to fasted state ([7]; whole blood): 42% | increase of Cmax with high-fat, high-calorie meal relative to fasted state ([7]; whole blood): 45% | inhibition of BCRP (BCRP): not an inhibitor | substrate of BCRP (BCRP): not a substrate | induction of CYP2B6 (CYP2B6): inducer | inhibition of CYP2B6 (CYP2B6): reversible and time-dependent inhibitor
